Experimental data reported in ChEMBL document CHEMBL1201862, “PubChem BioAssay data set” (2004).
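Step 1: Grow cells in 96-well plates. Step 2: Expose to compound for 48 hours at 5 concentrations. Step 3: Interpolate endpoints linearly; if unreached, use highest concentration. GI50: concentration for 50% inhibition of growth.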 The source made the active and inactive calls. No stated cut-off is given here; in the data, active = GI50 up to about 1.1 µM and inactive = higher.

Experiments:
Assay in all cases: NCI tumour cell line growth inhibition, 48 h
EKVX = test system: EKVX
SW-620 = test system: SW-620
SF-268 = test system: SF-268
MCF7 = test system: MCF7
NCI-H522 = test system: NCI-H522
NCI/ADR-RES = test system: NCI/ADR-RES
SNB-75 = test system: SNB-75
SK-MEL-5 = test system: SK-MEL-5
IGROV-1 = test system: IGROV-1
RPMI-8226 = test system: RPMI-8226
OVCAR-5 = test system: OVCAR-5
SF-295 = test system: SF-295
HCT-116 = test system: HCT-116
NCI-H23 = test system: NCI-H23
BT-549 = test system: BT-549
UACC-257 = test system: UACC-257
CCRF-CEM = test system: CCRF-CEM
786-0 = test system: 786-0
HOP-92 = test system: HOP-92
NCI-H460 = test system: NCI-H460

Structure (SMILES)	GI50 (EKVX)	GI50 (SW-620)	GI50 (SF-268)	GI50 (MCF7)	GI50 (NCI-H522)	GI50 (NCI/ADR-RES)	GI50 (SNB-75)	GI50 (SK-MEL-5)	GI50 (IGROV-1)	GI50 (RPMI-8226)	GI50 (OVCAR-5)	GI50 (SF-295)	GI50 (HCT-116)	GI50 (NCI-H23)	GI50 (BT-549)	GI50 (UACC-257)	GI50 (CCRF-CEM)	GI50 (786-0)	GI50 (HOP-92)	GI50 (NCI-H460)
NCCNC(=S)S	> 100 µM (inactive)	59.2 µM (inactive)	4.9 µM (inactive)	> 100 µM (inactive)	3.48 µM (inactive)	> 100 µM (inactive)	> 100 µM (inactive)	> 100 µM (inactive)	> 100 µM (inactive)	24.9 µM (inactive)	> 100 µM (inactive)	> 100 µM (inactive)	> 100 µM (inactive)	> 100 µM (inactive)	> 100 µM (inactive)	> 100 µM (inactive)	22.4 µM (inactive)	33.8 µM (inactive)		
NN/C(=N\S(=O)(=O)c1cc2ccccc2s1)Nc1ccc(Cl)cc1	19.2 µM (inactive)	23.1 µM (inactive)	22.8 µM (inactive)	20.2 µM (inactive)		20 µM (inactive)	20.6 µM (inactive)	17.9 µM (inactive)	17.3 µM (inactive)	16 µM (inactive)	21.1 µM (inactive)	19.9 µM (inactive)	16.9 µM (inactive)	20.3 µM (inactive)	18.9 µM (inactive)	18.5 µM (inactive)		19.6 µM (inactive)	19 µM (inactive)	18.5 µM (inactive)
O=c1[nH][nH]c(=O)n1Cc1ccccc1	> 100 µM (inactive)	> 100 µM (inactive)	> 100 µM (inactive)	> 100 µM (inactive)	> 100 µM (inactive)	> 100 µM (inactive)	> 100 µM (inactive)	> 100 µM (inactive)		> 100 µM (inactive)	> 100 µM (inactive)		> 100 µM (inactive)	> 100 µM (inactive)	> 100 µM (inactive)	> 100 µM (inactive)	> 100 µM (inactive)	> 100 µM (inactive)		> 100 µM (inactive)
CC(=O)N1CCn2c1nc1cc(Cl)ccc12	54.3 µM (inactive)	> 100 µM (inactive)	32.2 µM (inactive)	> 100 µM (inactive)	42.5 µM (inactive)	> 100 µM (inactive)		> 100 µM (inactive)	37.6 µM (inactive)		> 100 µM (inactive)	47.8 µM (inactive)	44 µM (inactive)		> 100 µM (inactive)	> 100 µM (inactive)	> 100 µM (inactive)	> 100 µM (inactive)	24.9 µM (inactive)	77.6 µM (inactive)
c1ccc(-c2cc(-c3cc(-c4ccccc4)[nH]n3)[nH]n2)cc1	> 100 µM (inactive)		> 100 µM (inactive)	> 100 µM (inactive)	> 100 µM (inactive)	> 100 µM (inactive)	> 100 µM (inactive)	> 100 µM (inactive)	> 100 µM (inactive)		> 100 µM (inactive)	> 100 µM (inactive)	> 100 µM (inactive)	> 100 µM (inactive)	> 100 µM (inactive)	> 100 µM (inactive)	> 100 µM (inactive)	> 100 µM (inactive)		> 100 µM (inactive)
CCC1(CC)C(=O)N(C(=O)c2cc(OC)c(OC)c(OC)c2)N(C(=O)c2cc(OC)c(OC)c(OC)c2)C1=O	> 50 µM (inactive)	> 50 µM (inactive)	> 50 µM (inactive)	> 50 µM (inactive)	> 50 µM (inactive)	> 50 µM (inactive)	42.9 µM (inactive)	46.1 µM (inactive)	> 50 µM (inactive)	> 50 µM (inactive)	> 50 µM (inactive)	24.8 µM (inactive)	> 50 µM (inactive)	> 50 µM (inactive)	> 50 µM (inactive)	> 50 µM (inactive)	> 50 µM (inactive)	> 50 µM (inactive)		> 50 µM (inactive)
CN(C)CCNC(=O)c1ccc2nc3c(nc2c1)C(=O)c1ccccc1-3	> 100 µM (inactive)	34.2 µM (inactive)	33.5 µM (inactive)	27.9 µM (inactive)	30.9 µM (inactive)		30.5 µM (inactive)	17.9 µM (inactive)	38.9 µM (inactive)	26.1 µM (inactive)	> 100 µM (inactive)	65.6 µM (inactive)	45.9 µM (inactive)	48.5 µM (inactive)	21.7 µM (inactive)	76.6 µM (inactive)	9.75 µM (inactive)	31.8 µM (inactive)	57.4 µM (inactive)	18.5 µM (inactive)
COc1cccc2c1C(=O)c1c(O)c3c(c(O)c1C2=O)C[C@@](O)(/C(C)=N\O)C[C@@H]3OC1CC(N)C(O)C(C)O1 (stereo not given in full)	3.19 µM (inactive)	0.504 µM (active)	0.931 µM (active)	0.289 µM (active)	0.315 µM (active)		0.501 µM (active)	0.643 µM (active)	0.76 µM (active)	0.592 µM (active)	2.7 µM (inactive)	1.38 µM (inactive)	0.883 µM (active)	1.26 µM (inactive)	1.72 µM (inactive)	1.78 µM (inactive)	0.187 µM (active)	1.06 µM (active)	1.08 µM (active)	0.268 µM (active)
CC(C)C(Sc1nc(N)nc2nc[nH]c12)C(=O)O (stereo not given)	> 100 µM (inactive)	> 100 µM (inactive)	> 100 µM (inactive)	> 100 µM (inactive)	> 100 µM (inactive)	> 100 µM (inactive)	> 100 µM (inactive)	> 100 µM (inactive)	> 100 µM (inactive)	> 100 µM (inactive)	> 100 µM (inactive)	> 100 µM (inactive)	> 100 µM (inactive)	> 100 µM (inactive)	> 100 µM (inactive)	> 100 µM (inactive)	> 100 µM (inactive)	> 100 µM (inactive)		> 100 µM (inactive)
Cc1nnc2sc(NN)nn12	> 100 µM (inactive)	> 100 µM (inactive)	> 100 µM (inactive)	> 100 µM (inactive)	> 100 µM (inactive)	> 100 µM (inactive)	> 100 µM (inactive)	> 100 µM (inactive)	> 100 µM (inactive)	> 100 µM (inactive)	> 100 µM (inactive)	> 100 µM (inactive)	> 100 µM (inactive)	> 100 µM (inactive)	> 100 µM (inactive)	> 100 µM (inactive)	41.4 µM (inactive)	> 100 µM (inactive)		> 100 µM (inactive)
COc1cccc(-c2cc(O)c3c(C)ccnc3n2)c1	0.225 µM (active)	< 0.0177 µM (active)	0.0439 µM (active)	0.0741 µM (active)	0.0275 µM (active)	0.0224 µM (active)	0.0143 µM (active)	0.0241 µM (active)	0.0493 µM (active)	0.0327 µM (active)	0.0748 µM (active)	0.029 µM (active)	0.0392 µM (active)	0.0625 µM (active)	21.2 µM (inactive)		0.029 µM (active)	0.0449 µM (active)		0.0395 µM (active)
